Source: ChEMBL document CHEMBL1144606, “Immunomodulatory effects of two sapogenins 1 and 2 isolated from Luffa cylindrica in Balb/C mice” (Bioorg Med Chem Lett, 2007)
The source made the active and inactive calls. The rule behind the calls is not given here.

Assays:
Splenocyte [1] = assay: Enhancement of LPS-stimulated blastogenic responsiveness in BALB/c mouse splenocytes at 100 mg/kg; type: functional, organism-based; set-up: dose 100 mg/kg
Splenocyte [2] = assay: Enhancement of ConA-stimulated blastogenic responsiveness in BALB/c mouse splenocytes at 10 mg/kg; type: functional, organism-based; set-up: dose 10 mg/kg
Mus musculus [3] = assay: Enhancement of ConA-Stimulated lymphocyte proliferation in BALB/c mouse at 10 mg/kg by MTT assay; type: functional, organism-based; set-up: dose 10 mg/kg
Mus musculus [4] = assay: Immunostimulatory effect against SRBC-inducing plaque forming cells in BALB/c mouse assessed as antibody secreting B cells at 100 mg/kg, po relative to control; type: functional, organism-based; set-up: dose 100 mg/kg
Splenocyte [5] = assay: Enhancement of ConA-stimulated blastogenic responsiveness in BALB/c mouse splenocytes at 100 mg/kg; type: functional, organism-based; set-up: dose 100 mg/kg
Mus musculus [6] = assay: Enhancement of ConA-Stimulated lymphocyte proliferation in BALB/c mouse at 100 mg/kg by MTT assay; type: functional, organism-based; set-up: dose 100 mg/kg
Mus musculus [7] = assay: Increased phagocytic index in BALB/c mouse at 10 mg/kg; type: organism-based; set-up: dose 10 mg/kg; conditions: in vivo
Mus musculus [8] = assay: Enhancement of LPS-Stimulated of lymphocyte proliferation in BALB/c mouse at 100 mg/kg by MTT assay; type: functional, organism-based; set-up: dose 100 mg/kg
Mus musculus [9] = assay: Immunostimulatory effect against SRBC-inducing plaque forming cells in BALB/c mouse assessed as antibody secreting B cells at 10 mg/kg, po relative to control; type: functional, organism-based; set-up: dose 10 mg/kg
Mus musculus [10] = assay: Enhancement of LPS-Stimulated lymphocyte proliferation in BALB/c mouse at 10 mg/kg by MTT assay; type: functional, organism-based; set-up: dose 10 mg/kg
Mus musculus [11] = assay: Immunostimulatory effect against SRBC-inducing hormoral response in BALB/c mouse assessed as antibody production at 100 mg/kg; type: functional, organism-based; set-up: dose 100 mg/kg
Mus musculus [12] = assay: Immunostimulatory effect against SRBC-induced hormonal response in BALB/c mouse assessed as antibody production at 10 m/kg; type: functional, organism-based
Splenocyte [13] = assay: Enhancement of LPS-stimulated blastogenic responsiveness in BALB/c mouse splenocytes at 10 mg/kg; type: functional, organism-based; set-up: dose 10 mg/kg

Activity (Mus musculus [7])	SMILES	Activity (Splenocyte [1])	Activity (Splenocyte [2])	Activity (Mus musculus [3])	Activity (Mus musculus [4])	Activity (Splenocyte [5])	Activity (Mus musculus [6])	Activity (Mus musculus [8])	Activity (Mus musculus [9])	Activity (Mus musculus [10])	Activity (Mus musculus [11])	Activity (Mus musculus [12])	Activity (Splenocyte [13])
Active	CC1(C)CC[C@]2(C(=O)O)[C@H](O)C[C@]3(C)C(=CC[C@@H]4[C@@]5(C)CC[C@H](O)C(C)(C)[C@@H]5CC[C@]43C)[C@@H]2C1	Active	Active	Active	Active	Active	Active	Active	Active	–	–	–	–
Active	CC1(C)CC[C@]2(C(=O)O)CC[C@]3(C)C(=CC[C@@H]4[C@@]5(C)CC[C@H](O)C(C)(C)[C@@H]5CC[C@]43C)[C@@H]2C1 [OLEANOLIC_ACID]	–	Active	Active	Active	Active	Active	–	Active	Active	inactive	Active	Active
